Assay results reported in ChEMBL document CHEMBL6177984, “Pyrazolo[1,5-a]pyrimidine-Based Type-I Photosensitizer as an Efficient Pyroptosis Inducer for Tumor Ablation” (J Med Chem, 2025).
Activity calls are given as the source filed them. The rule behind the calls is not given here.

Legend:
[1] = tested on: MDA-MB-231; test: Induction of ROS production in human MDA-MB-231 cells assessed as increase in intracellular OH level at 0.3 uM preincubated with compound for 1 hr followed by light irradiation with 400 to 700 nm 100 mW/cm2 for 10 mins by HPF fluorescent probe based flow cytometry; type: functional, cell-based; conditions: time 70.0 min
[2] = Dark cytotoxicity against human MDA-MB-231 cells assessed as cell viability incubated for 24 hrs by CCK8 assay; type: toxicity, cell-based
[3] = tested on: MDA-MB-231; test: Photocytotoxicity in human MDA-MB-231 cells assessed as cell viability preincubated with compound for 1 hr followed by light irradiated with 400 to 700 nm 100 mW/cm^2 for 10 mins and measured after 24 hrs by CCK-8 assay; type: functional, cell-based; conditions: MDA-MB-231, light or radiation study
[4] = tested on: MDA-MB-231; test: Dark cytotoxicity against human MDA-MB-231 cells assessed as cell viability at 1 uM incubated for 24 hrs by CCK8 assay; type: toxicity, cell-based; conditions: mda-mb-231, 24 h

For O=S(=O)(O)c1cc(O)c(O)c(S(=O)(=O)O)c1, the Activity [1] was “Active”.
With CC[n+]1ccc(/C=C/c2ccc(-c3cnn4ccc(N5CCOCC5)nc34)s2)cc1.[Br-] the IC50 at 24 h [2] was greater than 10 µM, the IC50 [3] was greater than 10 µM and the Activity [4] was “Non-toxic”.
